Data taken from PubChem BioAssay (NCI).
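Briefly, cells in 96-well plates were exposed to five compound concentrations for 48 h, and endpoints were estimated by linear interpolation. At the TGI there is no net growth.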

Columns and labels:
Assay in all cases: NCI-60 cell line screen, 48 h
[1] = tested on: SNB-19 CNS
[2] = tested on: OVCAR-8 ovarian
[3] = tested on: EKVX NSCLC
[4] = tested on: CCRF-CEM leukemia
[5] = tested on: SK-MEL-5 melanoma
[6] = tested on: MCF7 breast
[7] = tested on: DU-145 prostate
[8] = tested on: NCI-H522 lung
[9] = tested on: OVCAR-5 ovarian
[10] = tested on: NCI-H23 lung

Structure (SMILES) | TGI [1] [µM] | TGI [2] [µM] | TGI [3] [µM] | TGI [4] [µM] | TGI [5] [µM] | TGI [6] [µM] | TGI [7] [µM] | TGI [8] [µM] | TGI [9] [µM] | TGI [10] [µM]
COC(=O)C1(Cc2ccc3c(c2)CCC3)Cc2ccccc2C1=O (stereo not given) | > 100 | > 100 | 73.7 | 67.2 | 18.1 | 70.1 | 67.8 | 31.5 | > 100 | 95.4
O=C(O)c1ccc2c(c1)CC1(C2)Cc2cc3c(cc2C1=O)CCC3 (stereo not given) | > 100 | > 100 | > 100 | > 100 | > 100 | > 100 | > 100 | > 100 | > 100 | > 100
COc1cc(OCc2ccc3nc(OC)c(OC)nc3c2)cc(OC)c1OC | > 10 | > 10 | > 10 | > 10 | > 10 | > 10 | > 10 | > 10 | > 10 | > 10
C=C(C)[C@@]1(O[Si](C)(C)C)CCCC[C@@H]1CC(Sc1ccccc1)Sc1ccccc1 | 30.6 | 31.7 | 32.1 | 36.2 | 34.8 | 27.6 | 29.7 | 20.4 | 30.3 | 30.9
COC(=O)C1OC(O[C@H]2CC[C@]3(C)[C@H]4CC=C5[C@@H]6CC(C)(C)CC[C@]6(C(=O)OC6OCC(O)C(O)C6OC6OC(C)C(OC7OCC(OC8OCC(O)C(O)C8O)C(O)C7O)C(O)C6O)[C@H](O)C[C@@]5(C)[C@]4(C)CC[C@H]3C2(C)C)C(O)C(O)C1O (stereo not given in full) | 8.09 | 13.2 | 5.86 | > 100 | 11.6 | 6.63 | 16.9 | 7.76 | 8.01 | 6.53
OCC(O)C(O)C(O)/C=N/Nc1nc(O)c(/C=C2\C=Nc3ccccc32)[nH]1 (stereo not given) | > 100 | > 100 | > 100 | > 100 | > 100 | > 100 | > 100 | > 100 | > 100 | > 100
CC1=CC(=O)CC2(C)CCC(C(C)CC(=O)CC(C)C)CC12 (stereo not given) | > 100 | 53.2 | > 100 | 61.2 | 36.4 | 66.8 | > 100 | 30.8 | > 100 | > 100
O=C(CCCN1CCC2(CC1)C(=NC1CCCCC1)NC(=O)N2c1ccccc1)c1ccc(F)cc1 | > 100 | 68.4 | > 100 | 64.4 | 37.9 | 33.1 | > 100 | 51.3 | 55 | 48.1
COC(=O)[C@H](C)NC(=O)[C@H](CSC)N1C(=O)N[C@@H](C(C)C)C1=O | > 100 | > 100 | > 100 | > 100 | > 100 | > 100 | > 100 | > 100 | > 100 | > 100
